The values that follow are results of earlier work, collected in US20140228595A1, “PROCESSES FOR PRODUCING HEXANEDIOL (HDO), HEXAMETHYLENEDIAMINE (HMD), ADIPONITRILE (ADN), ADIPAMIDE (ADM) AND DERIVATIVES THEREOF” (BioAmber S.A.S., priority 2011, published 2014).

On to `O=C(O)CCCCC(=O)O` [AA, adipic acid], for which the pKa1 (Table 1, Run 1) is 4.43. The “pKa of the second acid group of AA” value (second acid group) is recorded as 5.1.
